Results published in publication PMC10349078, “Sequence-based drug design as a concept in computational drug design” (Nature Communications, 2023).

How the values were obtained:
SPOP^MATH = target: T1, SPOP^MATH (Homo sapiens, UniProt O43791); assay: fluorescence polarization, displacement of FITC-puc_SBC1 peptide; assay type: binding
T1 construct: MATH domain, residues 28-166; GST tag cut with PreScission protease; E. coli BL21-CodonPlus (DE3)-RIPL

RNF130 = target: T2, RNF130 (Homo sapiens, UniProt Q86XS8); assay: ITC; assay type: binding; conditions: […] RNF130 in cell, […] compound injected; N = […]
T2 construct: residues 1-304, C-terminal His8-Flag tag kept, expressed in Expi-293F
T2 sequence (Q86XS8 28-304 limits assumed): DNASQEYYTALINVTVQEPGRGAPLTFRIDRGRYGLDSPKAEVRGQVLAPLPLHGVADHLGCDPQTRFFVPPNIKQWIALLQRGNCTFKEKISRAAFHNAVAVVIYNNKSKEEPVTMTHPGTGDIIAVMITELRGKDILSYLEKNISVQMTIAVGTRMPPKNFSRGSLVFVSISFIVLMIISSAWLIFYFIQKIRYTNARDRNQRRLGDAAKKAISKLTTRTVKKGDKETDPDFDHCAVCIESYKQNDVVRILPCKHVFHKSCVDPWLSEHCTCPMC

ARF1^WT (Δ17ARF1) [1] = target: T3, ARF1^WT (Δ17ARF1) (Homo sapiens, UniProt P84077); assay: protein thermal shift (SYPRO Orange); intact-protein and tandem MS; assay type: binding; conditions: […] protein, covalent at C159
T3 construct: N-terminally truncated (first 17 residues removed), His6-tag (pProEX HTb), E. coli BL21-CodonPlus (DE3)-RIPL
T3 sequence (P84077 18-181, stated change not applied): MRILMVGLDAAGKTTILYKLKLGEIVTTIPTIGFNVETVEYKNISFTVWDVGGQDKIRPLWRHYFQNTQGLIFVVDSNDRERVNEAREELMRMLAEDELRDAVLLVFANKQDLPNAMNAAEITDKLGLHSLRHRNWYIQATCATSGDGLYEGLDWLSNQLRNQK

ARF1^WT (Δ17ARF1) [2] = target: T4, ARF1^WT (Δ17ARF1) (Homo sapiens, UniProt P84077, C159A); assay: protein thermal shift (SYPRO Orange); assay type: binding; conditions: no covalent adduct by mass spectrometry
T4 construct: N-terminally truncated (first 17 residues removed), His6-tag (pProEX HTb), E. coli BL21-CodonPlus (DE3)-RIPL
T4 sequence (P84077 18-181 C159A): as the sequence (P84077 18-181, stated change not applied) above, with C142A counted along it
From the text: protein thermal shift (SYPRO Orange) on ARF1^WT (Δ17ARF1) | PPIs with ARF1^C159A where C159 was mutated to alanine. No Tm shifts were observed

ARF1^WT (Δ17ARF1) [3] = target: T3, ARF1^WT (Δ17ARF1); assay: GDP/MANT-GTP nucleotide exchange, fluorescence; assay type: biochemical; conditions: exchange catalysed by […] human ARNO Sec7 ([…]-250)

T1 sequence (O43791 28-166): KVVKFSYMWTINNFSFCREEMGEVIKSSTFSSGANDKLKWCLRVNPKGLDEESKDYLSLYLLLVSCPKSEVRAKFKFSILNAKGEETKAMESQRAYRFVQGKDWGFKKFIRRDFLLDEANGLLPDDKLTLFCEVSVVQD

SMILES: Cc1nnc(SCC2=C(C(=O)O)N3C(=O)C(NC(=O)c4ccc(COc5ccccc5Cl)o4)C3SC2)s1 (stereo not drawn) [221C7]
- IC50 (SPOP^MATH): 4.51 µM

SMILES: C=CC1=C(C(=O)O)N2C(=O)[C@@H](NC(=O)CCC3CCCC3)[C@H]2SC1 [222A5, (6R,7R)−7-(3-cyclopentylpropanamido)−8-oxo-3-vinyl-5-thia-1-azabicyclo[4.2.0]oct-2-ene-2-carboxylic acid]
- IC50 (SPOP^MATH): > 100 µM

SMILES: CS(=O)(=O)c1nnc(CN2C3C=C(c4ccccc4)CC2CC3)s1 (stereo not drawn) [iRNF130-63]
- Kd (RNF130): 1.23 µM

SMILES: Cc1c(OCC(F)(F)F)ccnc1C[S+]([O-])c1nc2ccccc2[nH]1 (stereo not drawn) [lansoprazole]
- Tm shift (ARF1^WT (Δ17ARF1) [1]; no DTT): PPIs could bind directly to wild-type ARF1 (ARF1^WT) and destabilize the protein

SMILES: COc1ccc2[nH]c([S+]([O-])Cc3ncc(C)c(OC)c3C)nc2c1 (stereo not drawn) [omeprazole]
- Tm shift (ARF1^WT (Δ17ARF1) [1]; no DTT): PPIs could bind directly to wild-type ARF1 (ARF1^WT) and destabilize the protein

SMILES: COc1ccnc(C[S+]([O-])c2nc3cc(OC(F)F)ccc3[nH]2)c1OC (stereo not drawn) [pantoprazole]
- Tm shift (ARF1^WT (Δ17ARF1) [1]; no DTT): PPIs could bind directly to wild-type ARF1 (ARF1^WT) and destabilize the protein

SMILES: COCCCOc1ccnc(C[S+]([O-])c2nc3ccccc3[nH]2)c1C (stereo not drawn) [rabeprazole]
- Tm shift (ARF1^WT (Δ17ARF1) [1]; no DTT; […] compound): PPIs could bind directly to wild-type ARF1 (ARF1^WT) and destabilize the protein
- Tm shift (ARF1^WT (Δ17ARF1) [2]): PPIs with ARF1^C159A where C159 was mutated to alanine. No Tm shifts were observed
- GDP/MANT-GTP nucleotide exchange, fluorescence (ARF1^WT (Δ17ARF1) [3]): rabeprazole suppressed the nucleotide exchange process in a concentration-dependent manner
